The subject of one data set is Influenza A virus. The data set can be described thus: Antiviral activity against Influenza A virus (A/WSN/1933(H1N1)) infected in MDCK cells assessed as reduction in virus-induced cytopathic effect measured everyday. Format: functional, organism-based.
Data set [1] can be described thus: Cytotoxicity against MDCK cells assessed as reduction in cell viability after 72 hrs by CellTiter-Glo assay. The format is cell-based, Canis lupus familiaris. To be noted: dog.
The nature of data set [2]: Inhibition of Clostridium neuraminidase preincubated for 2 mins followed by neuraminidase fluorescent addition and measured after 30 mins by fluorescence assay.
Data set [3] can be described thus: Selectivity index, ratio of CC50 for MDCK cells to IC50 for Influenza A virus (A/WSN/1933(H1N1)). The format is toxicity. The following applies: dog, read-out: Ratio CC50/IC50.

Each structure is given as a SMILES string.

On to `CC(=O)N[C@H]1[C@H]([C@H](O)[C@H](O)CO)OC(C(=O)O)=C[C@@H]1NC(=N)NC(=O)CSc1ccc2ccccc2c1`, for which the IC50 with Influenza A virus (read-out: pIC50 (converted)) is 20.1 nM.

In the case of `COc1cc(CCC(=O)NC(=N)N[C@H]2C=C(C(=O)O)O[C@@H]([C@H](O)[C@H](O)CO)[C@@H]2NC(C)=O)cc(OC)c1OC`, the IC50 in the data set on Influenza A virus (read-out: pIC50 (converted)) is 239 nM. On the same count and under the same terms, under `CC(=O)N[C@H]1[C@H]([C@H](O)[C@H](O)CO)OC(C(=O)O)=C[C@@H]1NC(=N)NC(=O)Cc1ccc2ccccc2c1` stands 55 nM. On the same count and under the same terms, the figure for `CC(=O)N[C@H]1[C@H]([C@H](O)[C@H](O)CO)OC(C(=O)O)=C[C@@H]1NC(=N)NC(=O)c1ccc([N+](=O)[O-])cc1` is 152 nM; for `COc1ccccc1CCC(=O)NC(=N)N[C@H]1C=C(C(=O)O)O[C@@H]([C@H](O)[C@H](O)CO)[C@@H]1NC(C)=O` it is 196 nM; for `CC(=O)N[C@H]1[C@H]([C@H](O)[C@H](O)CO)OC(C(=O)O)=C[C@@H]1NC(=N)NC(=O)CC12CC3CC(CC(C3)C1)C2` it is 275 nM. On the same count and under the same terms, the figure for `CC(=O)N[C@H]1[C@H]([C@H](O)[C@H](O)CO)OC(C(=O)O)=C[C@@H]1NC(=N)NC(=O)CC(C)CCC=C(C)C` (stereo not given in full) is 541 nM.

As to `CC(=O)N[C@H]1[C@H]([C@H](O)[C@H](O)CO)OC(C(=O)O)=C[C@@H]1NC(=N)NC(=O)CCc1ccccc1C(F)(F)F`, in the data set with Influenza A virus (read-out: pIC50 (converted)), the IC50 was 332 nM. For `CC(=O)N[C@H]1[C@H]([C@H](O)[C@H](O)CO)OC(C(=O)O)=C[C@@H]1NC(=N)NC(=O)CCc1ccc2ccccc2c1`, the IC50 in the data set on Influenza A virus (read-out: pIC50 (converted)) is 74.8 nM. Still for that read-out and setting: the figure for `CC(=O)N[C@H]1[C@H]([C@H](O)[C@H](O)CO)OC(C(=O)O)=C[C@@H]1NC(=N)NC(=O)CCCCC1CCCCC1` is 260 nM; for `CC(=O)N[C@H]1[C@H]([C@H](O)[C@H](O)CO)OC(C(=O)O)=C[C@@H]1NC(=N)NCCSc1ccccc1` it is 39400 nM.

Consider `CC(=O)N[C@H]1[C@H]([C@H](O)[C@H](O)CO)OC(C(=O)O)=C[C@@H]1NC(=N)NC(=O)CCc1ccccc1`, for which, in the data set on Influenza A virus (read-out: pIC50 (converted)), the IC50 was 203 nM. Same read-out and setting: the figure for `CC(=O)N[C@H]1[C@H]([C@H](O)[C@H](O)CO)OC(C(=O)O)=C[C@@H]1NC(=N)NC(=O)CCc1ccc(N)cc1` is 176 nM. `CCC(C)C(=O)NC(=N)N[C@H]1C=C(C(=O)O)O[C@@H]([C@H](O)[C@H](O)CO)[C@@H]1NC(C)=O` (stereo not given in full): in the data set with Influenza A virus (read-out: pIC50 (converted)), the IC50 is 774 nM. On the same count and under the same terms, under `CC(=O)N[C@H]1[C@H]([C@H](O)[C@H](O)CO)OC(C(=O)O)=C[C@@H]1NC(=N)NC(=O)CCCc1ccc(N)cc1` stands 421 nM; under `CC(=O)N[C@H]1[C@H]([C@H](O)[C@H](O)CO)OC(C(=O)O)=C[C@@H]1NC(=N)NC(=O)CCCCCc1ccccc1`, 233 nM. Regarding `CC(=O)N[C@H]1[C@H]([C@H](O)[C@H](O)CO)OC(C(=O)O)=C[C@@H]1NC(=N)NC(=O)CCC1CCOC1` (stereo not given in full), in the data set with Influenza A virus (read-out: pIC50 (converted)), the IC50 was 1200 nM. On to `COc1ccccc1CC(=O)NC(=N)N[C@H]1C=C(C(=O)O)O[C@@H]([C@H](O)[C@H](O)CO)[C@@H]1NC(C)=O`, for which the IC50 in the data set with Influenza A virus (read-out: pIC50 (converted)) is 209 nM. Take `CC(=O)N[C@H]1[C@H]([C@H](O)[C@H](O)CO)OC(C(=O)O)=C[C@@H]1NC(=N)NC(=O)CSc1ccccc1`: the IC50 in the data set on Influenza A virus (read-out: pIC50 (converted)) is 189 nM. Consider `CC(=O)N[C@H]1[C@H]([C@H](O)[C@H](O)CO)OC(C(=O)O)=C[C@@H]1NC(=N)NC(=O)/C=C/c1cc(F)cc(F)c1`, for which the IC50 in the data set with Influenza A virus (read-out: pIC50 (converted)) is 166 nM. In the case of `CC(=O)N[C@H]1[C@H]([C@H](O)[C@H](O)CO)OC(C(=O)O)=C[C@@H]1NC(=N)NC(=O)CCc1ccccc1Br`, the IC50 in the data set on Influenza A virus (read-out: pIC50 (converted)) was 134 nM.

As to `CC(=O)N[C@H]1[C@H]([C@H](O)[C@H](O)CO)OC(C(=O)O)=C[C@@H]1NC(=N)NC(=O)Cc1ccccc1`, the IC50 with Influenza A virus (read-out: pIC50 (converted)) was 46 nM. Same read-out and setting: the figure for `CC(=O)N[C@H]1[C@H]([C@H](O)[C@H](O)CO)OC(C(=O)O)=C[C@@H]1NC(=N)NC(=O)Cc1cccc2ccccc12` is 98.4 nM; for `CC(=O)N[C@H]1[C@H]([C@H](O)[C@H](O)CO)OC(C(=O)O)=C[C@@H]1NC(=N)NC(=O)CCc1ccccc1C` it is 462 nM. Regarding `CC(=O)N[C@H]1[C@H]([C@H](O)[C@H](O)CO)OC(C(=O)O)=C[C@@H]1NC(=N)NC(=O)CCCOc1ccccc1`, the IC50 in the data set with Influenza A virus (read-out: pIC50 (converted)) is 397 nM.

Take `CC(=O)N[C@H]1[C@H]([C@H](O)[C@H](O)CO)OC(C(=O)O)=C[C@@H]1NC(=N)NC(=O)CCCCCCCCCCOc1ccccc1`: the IC50 in the data set on Influenza A virus (read-out: pIC50 (converted)) was 203 nM. As for `CC(=O)N[C@H]1[C@H]([C@H](O)[C@H](O)CO)OC(C(=O)O)=C[C@@H]1NC(=N)NC(=O)Cc1ccc(F)cc1`, the CC50 at 72 h in data set [1] is over 100000 nM. The IC50 in data set [2] stood at 35400 nM; in the data set on Influenza A virus (read-out: IC50) it was 670 nM. For the same compound, the selectivity ratio in data set [3] is over 149. For the compound `CC(=O)N[C@H]1[C@H]([C@H](O)[C@H](O)CO)OC(C(=O)O)=C[C@@H]1NC(=N)NCCc1ccc2ccccc2c1`, the IC50 in the data set on Influenza A virus (read-out: pIC50 (converted)) is 34700 nM. Still for that read-out and setting: the figure for `CC(=O)N[C@H]1[C@H]([C@H](O)[C@H](O)CO)OC(C(=O)O)=C[C@@H]1NC(=N)NC(=O)CCOc1ccccc1` is 180 nM. As for `CC(=O)N[C@@H]1C(NC(=N)NC(=O)c2ccc(-c3ccc(O)cc3)cc2)C=C(C(=O)O)O[C@H]1[C@H](O)C(O)CO` (single isomer, unassigned), the CC50 at 72 h in data set [1] was over 100000 nM. Moreover, the results for the IC50 (in data set [2]; in the data set with Influenza A virus (read-out: IC50)) were 97500 nM and 6950 nM, respectively. For the same compound, in data set [3], the selectivity ratio is over 14. The corresponding values for `CC(=O)N[C@H]1[C@H]([C@H](O)[C@H](O)CO)OC(C(=O)O)=C[C@@H]1NC(=N)N` [ZANAMIVIR] are over 100000 nM, 130000 nM, 873 nM and over 115.

The values above are taken from ChEMBL document CHEMBL4325880, “Design, synthesis and biological evaluation of novel zanamivir derivatives as potent neuraminidase inhibitors” (Bioorg Med Chem Lett, 2018).
